# Test results reported in paper PMC8691750, “Euphorbia Factor L2 ameliorates the Progression of K/BxN Serum-Induced Arthritis by Blocking TLR7 Mediated IRAK4/IKKβ/IRF5 and NF-kB Signaling Pathways” (Frontiers in Pharmacology, 2021).
# Assays:
# [1] = In vivo pharmacokinetic study, plasma UPLC-MS; design: species or system C57BL/6 mice; conditions: for Cmax: 40 mg/kg
# Protocol: Prior to the pharmacokinetic study, 12 male C57BL/6 mice were fasted for 12 h with free access to water, and then treated by intraperitoneal injection of EFL2 at a dose of 40 mg/kg. About 50 μL blood samples were collected via the oculi chorioideae vein at 0.5, 1, 2, 4, 8, 12, 24, 72, 96, and 168 h, respectively. After centrifugation at 5,000 rpm for 10 min, plasma samples were obtained and frozen at −80°C until analysis. The pharmacokinetic parameters of EFL2 were calculated using WinNolin 4.0.1 software.
# 20 μL plasma samples were spiked with 340 μL acetonitrile by vortex mixing for 30 s. The mixture was then centrifuged at 10,000 rpm for 5 min at 4°C to separate the precipitated protein. An aliquot of 50 μL supernatant was transferred to a fresh tube and spiked with 450 μL mobile phase (acetonitrile containing 0.1% formic acid). After centrifugation at 13,000 rpm for 5 min, 3 μL supernatant was injected into Agilent 6,495 Triple Quadrupole LC/MS/MS system for each time. Then, the concentration of EFL2 was determined.
# An Agilent 1,200 series UPLC system (Agilent Technologies, Waldbronn, Germany) equipped with an 6,495 quadruple mass spectrometer (Agilent Technologies, Santa Clara, CA, United States) were used for pharmacokinetic study. The separation was carried out with Waters Acquity UPLC BEH C18 column (2.1 × 50 mm, 1.7 μm) at a constant temperature of 30 °C. The mobile phase was composed of aqueous solution (0.1% formic acid, A) and acetonitrile (containing 0.1% formic acid, B) and the program of the mobile phase was as follows: 0 min, 40% B; 1 min, 40% B; 1.5 min, 80% B; 2.5 min, 90% B; 4 min, 90% B; 4.1 min, 40% B; 6 min, 40% B, at a flow rate of 0.3 ml/min. The mass spectra were acquired using a triple quadrupole mass spectrometer with ESI ion source in positive mode. The ionization conditions were as follows: drying gas temperature (N2), 300°C; gas flow, 11 L/min (N2); nebulizer pressure, 35 psi (N2). An Agilent Mass Hunter workstation was used for data processing.
# [2] = tested on: chemokine, cytokine and TLR pathway mRNA expression in the ankles; experiment: Quantitative RT-PCR of ankles of STA mice; type: in vivo, C57BL/6 mice
# Protocol: (§1) K/BxN serum was collected from K/BxN mice at 8 weeks of age, pooled, aliquoted and stored at -20 °C. K/BxN serum-transfer arthritis (STA) model was induced by intraperitoneal (i.p.) application of 150 μL of serum at day 0. Clinical score for arthritis severity was assessed using a 0–4 point scale for each paw at various time points (0–16 total score) as described previously ([Luo et al., 2011]). 8-week old male C57BL/6 mice were purchased from Dashuo Animal Center (China, Chengdu), maintained at 25°C, and exposed to 12-h light and dark cycles. Mice were fed with standard laboratory chow and water with 1 week of acclimatization. Naive mice were used as the control group. Except the control mice, all mice were i. p. injected with 150 μL of serum, then randomly divided into the following groups and treated with different compounds daily for the consecutive 8 days: 1) STA group; 2) Solvent control group, mice were gavaged with the solvent; 3) Dexamethasone (DEX) group, mice were gavaged with 30 mg/kg DEX; 4) EFL2 group 1, mice were gavaged with 40 mg/kg EFL2; 5) EFL2 group 2, mice were intraperitoneally injected with 15 mg/kg EFL2; 6) EFL2 group 3, […] were intraperitoneally injected with 40 mg/kg EFL2. […] All animal experiments were conducted in accordance with ethical regulation for animal care and use in China.
# Frozen right ankles were pulverized with liquid nitrogen and total RNA was extracted using Trizol reagent (Invitrogen). RNA was reverse transcribed into cDNA using an oligo d(T) primer. The obtained cDNA was applied for quantitative RT-PCR using SYBR Green I-dTTP (Eurogentec). Samples were analyzed in triplicate, and β-actin was used as endogenous controls. Data was analyzed using the 2^−ΔΔCt method and is expressed as “Fold change” (expression relative to housekeeping gene and normalized to reference sample).
# [3] = tested on: TLR7 (R837) / TLR3 (poly:IC) induced cytokine production in RAW264.7 cells; experiment: ELISA of IL-1β and IL-6 in supernatant of R837 and/or poly:IC stimulated RAW264.7 cells; type: cell-based, mouse
# Protocol: RAW264.7 cells (5×10^5/ml), BMDMs (5×10^5/ml) and PBMCs (2×10^6/ml) were plated in 96-well plates and incubated overnight. […] For the anti-inflammatory molecular mechanism study, RAW264.7 cells (5×10^5/ml) were plated in 96-well plates and stimulated with R837 (20 μg/ml) with or without the addition of NF-κB inhibitor (JSH-23, […]) for 24 h. After 24 h, the culture supernatant was collected for cytokines measurements.
# (§2) IL-4, IL-17A and TNF-α in sera from different group mice were measured using CBA Multiplex kit (BD, United States). The concentrations of IL-1β and IL-6 in serum or supernatant were detected by ELISA Kit (MULTI SCIENCES, China) according to the manufacturers’ instructions.
# [4] = tested on: TNF-α, IL-4, IL-17A, IL-1β and IL-6 in serum; experiment: Cytokines in sera of STA mice (CBA Multiplex kit, ELISA); type: in vivo, C57BL/6 mice
# Protocol: as §1, §2
# [5] = male, C57BL/6, mouse, ip, mice, 40 mg/kg intraperitoneal injection, plasma
# [6] = STA mice day 5, EFL2 40 mg/kg i.p.
smiles,measurement,setting,value
"C=C1C(OC(=O)c2ccccc2)CC2C(C=C(C)C(=O)C3(OC(C)=O)CC(C)C(OC(=O)c4ccccc4)C3C1OC(C)=O)C2(C)C (stereo not drawn) [EFL2, Euphorbia factor L2]",peak concentration in sera,[1]; based on Cmax and molecular weight (MW = 642.6),7.03 µM
same,AUC(0-inf),[1]; [5],379 ± 166 µg·h/mL
same,AUC(0-t),[1]; [5],374 ± 164 µg·h/mL
same,Tmax,[1]; [5],2.5 ± 1.73 h
same,half-life,[1]; [5],1270 ± 427 min
same,MRT last,"[1]; male, C57BL/6, mouse, ip, mice, 40 mg/kg intraperitoneal injection, plasma, read-out: MRT0-t",59.2 ± 2.75 h
same,MRT inf,"[1]; male, C57BL/6, mouse, ip, mice, 40 mg/kg intraperitoneal injection, plasma, read-out: MRT0-∞",61.4 ± 3.7 h
same,Cmax,"[1]; male, C57BL/6, mouse, plasma, ip, mice, 40 mg/kg i.p.",4520 ± 1630 ng/mL
same,Cmax,"[1]; male, C57BL/6, mouse, plasma, ip, mice, 40 mg/kg intraperitoneal injection",4530 ng/mL
same,CXCL1 mRNA expression in the ankles,[2]; [6],remarkably down-regulated
same,CXCL5 mRNA expression in the ankles,[2]; [6],remarkably down-regulated
same,CCL3 mRNA expression in the ankles,"[2]; STA mice, EFL2 15 mg/kg i.p.",only significantly decreased
same,CCL3 gene expression in the ankles,"[2]; STA mice, EFL2 40 mg/kg i.p.",significantly reduced
same,"mRNA expression of up-regulated TLR pathway genes (TLR7, TLR2, TLR9, Myd88, IRAK1/4, Nfkbia/ib, IRF5, Rel, Map3K7, Mapk8) in ankles","[2]; STA mice, EFL2 40 mg/kg i.p., RT-PCR",robust inhibitory effect
same,IL-1β mRNA expression in the ankles,"[2]; STA mice, EFL2 i.p. treatment",robustly inhibited
same,IL-6 mRNA expression in the ankles,"[2]; STA mice, EFL2 i.p. treatment",robustly inhibited
same,inhibitory ability on IL-1β and IL-6 production compared to JSH-23,"[3]; R837-stimulated RAW264.7, EFL2 10 μM",stronger inhibitory ability
same,IL-6 production,"[3]; R837-stimulated RAW264.7, EFL2 0.1-10 μM",dose-dependently reduced
same,IL-1β secretion,"[3]; R837-stimulated RAW264.7, EFL2 at 0.1 μM",effectively inhibit
same,levels of IL-1β and IL-6 in the supernatant,"[3]; RAW264.7 co-stimulated by poly (I:C) and R837, various concentrations of EFL2",to different expent decreased
same,IL-6 level in sera,"[4]; STA mice, EFL2 15 mg/kg i.p., day 8",only effectively inhibited
same,IL-1β level in sera,"[4]; STA mice, EFL2 40 mg/kg i.p.",significantly reduced
same,IL-6 level in sera,"[4]; STA mice, EFL2 40 mg/kg i.p.",significantly reduced
same,"TNF-α, IL-4 and IL-17A levels in blood (other cytokines)","[4]; control, STA and STA mice treated with DEX or EFL2",did not affect
